In patent US20200246317A1, “METHODS OF TREATING DIABETIC NEUROPATHY WITH A THIAZOLINE ANTI-HYPERALGESIC AGENT” (CERSCI THERAPEUTICS, INC., priority 2019, published 2020):
Structures can show the parent of a compound that is named as a salt.

How the values were obtained:
[1] = Stability of dose formulations for GLP toxicology studies (0.5% HPMC); type: physicochemical; settings: 1.0 to 200 mg/mL in 0.5% HPMC
Experimental: Formulation analysis and bioanalytical methods were validated for all GLP studies. Formulation of Compound 1 in water was validated over a range of 1 to 200 mg/mL using HPLC and in 0.5% hydroxypropyl methylcellulose (HPMC) over the same range.
Dose formulation analysis for all good laboratory practice (GLP) general toxicology studies was performed using a validated high-performance liquid chromatography (HPLC)/ultraviolet (UV) analytical method (2750-001-001 Dose Formulation Method 1). The vehicle used in the in vivo toxicology studies was 0.5% HPMC). The analytical method utilized HPLC with monitoring at 227 nm with an isocratic mobile phase of methanol with the column temperature set to 25° C. Linearity over a range of 1.0 to 200 mg/mL was observed. Dose formulations over this range were stable at room temperature for up to 13 days and were stable when stored frozen at −20° C. for up to 85 days.

[2] = test system: streptozotocin (STZ)-induced diabetic rats; experiment: Mechanical thresholds in streptozotocin (STZ)-induced diabetic rats; type: in vivo, rat
Experimental: Experiments were conducted to determine the effect of Compound 1 in streptozotocin (STZ)-induced diabetic rats. In the first experiment, after obtaining mechanical threshold baselines, STZ (50 mg/kg IV) was administered (Day −7). Two days later, blood glucose levels were measured and animals that were hyperglycemic (>250 mg/dL) continued in the study. On Day 0 the baseline for mechanical thresholds prior to dosing with test articles was established for the rats. Compound 1 (10, 30, and 100 mg/kg PO), gabapentin (100 mg/kg PO) or vehicle was then administered daily for 5 days. On Day 0 mechanical thresholds were obtained at 1, 3, and 6 h post-dose. On Day 1 mechanical thresholds were measured immediately prior to dosing and then 3 h post-dose. The same regimen was followed on Day 3.
In a subsequent study, the same STZ paradigm was followed. However, in addition to the 100 mg/kg Compound 1 group, two additional cohorts received the Compound 1 100 mg/kg dose split into two or three doses per day with 50 mg/kg BID and 33 mg/kg TID. In addition to the gabapentin (100 mg/kg PO) group, a separate cohort received duloxetine (30 mg/kg PO). Additionally, in this study mechanical threshold testing was implemented every day immediately prior to dosing and 2 h post-dose for 7 days.

[3] = test system: models of painful diabetic neuropathy; experiment: Models of painful diabetic neuropathy (overview); type: in vivo; settings: upon repeated dosing
[4] = test system: hypersensitivity caused by an injury/insult such as an incision or irritant; experiment: Hypersensitivity caused by an injury/insult (incision or irritant); settings: in vivo
[5] = Models of protein nitration; type: biochemical; settings: physiological conditions (neutral pH)
[6] = Rat brain distribution and pharmacokinetic study; type: in vivo
Description: A rat brain distribution study performed in order to determine standard pharmacokinetic parameters and to assess the brain penetration properties of Compound 1 administered orally and intravenously.

[7] = In vivo epimerization by chiral methods
[8] = Stability in hepatocytes, dog; type: in vitro ADME
[9] = Stability in hepatocytes, human; type: in vitro ADME
OATP1B3 = target: T1, OATP1B3 (Homo sapiens, UniProt Q9NPD5); experiment: Inhibition of transporters, OATP1B3 (HEK293 cells); type: in vitro ADME
T1 construct: expressed in transfected cells; host or cells: HEK293 cells
T1 sequence (Q9NPD5 1-702): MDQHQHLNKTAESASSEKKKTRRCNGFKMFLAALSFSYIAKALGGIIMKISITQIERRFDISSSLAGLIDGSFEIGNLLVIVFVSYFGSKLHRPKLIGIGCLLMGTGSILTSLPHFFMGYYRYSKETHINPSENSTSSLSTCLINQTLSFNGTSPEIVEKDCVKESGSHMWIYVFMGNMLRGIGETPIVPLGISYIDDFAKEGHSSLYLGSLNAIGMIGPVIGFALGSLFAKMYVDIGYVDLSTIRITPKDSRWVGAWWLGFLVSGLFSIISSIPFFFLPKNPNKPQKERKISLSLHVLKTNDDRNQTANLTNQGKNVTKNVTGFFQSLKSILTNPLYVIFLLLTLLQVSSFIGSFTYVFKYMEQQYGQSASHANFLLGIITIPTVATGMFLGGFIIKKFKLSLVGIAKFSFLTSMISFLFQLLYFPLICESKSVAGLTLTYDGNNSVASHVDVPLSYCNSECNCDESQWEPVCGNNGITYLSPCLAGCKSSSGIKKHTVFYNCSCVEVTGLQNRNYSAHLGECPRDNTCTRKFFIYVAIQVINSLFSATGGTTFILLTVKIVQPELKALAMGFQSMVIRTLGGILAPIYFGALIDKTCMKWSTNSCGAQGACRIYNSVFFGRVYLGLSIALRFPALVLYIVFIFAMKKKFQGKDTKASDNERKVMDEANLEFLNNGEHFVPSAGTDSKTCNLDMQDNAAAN

OAT3 = target: T2, OAT3 (Homo sapiens, UniProt Q8TCC7); experiment: Inhibition of transporters, OAT3 (HEK293 cells); type: in vitro ADME
T2 construct: expressed in transfected cells; host or cells: HEK293 cells
T2 sequence (Q8TCC7 1-542): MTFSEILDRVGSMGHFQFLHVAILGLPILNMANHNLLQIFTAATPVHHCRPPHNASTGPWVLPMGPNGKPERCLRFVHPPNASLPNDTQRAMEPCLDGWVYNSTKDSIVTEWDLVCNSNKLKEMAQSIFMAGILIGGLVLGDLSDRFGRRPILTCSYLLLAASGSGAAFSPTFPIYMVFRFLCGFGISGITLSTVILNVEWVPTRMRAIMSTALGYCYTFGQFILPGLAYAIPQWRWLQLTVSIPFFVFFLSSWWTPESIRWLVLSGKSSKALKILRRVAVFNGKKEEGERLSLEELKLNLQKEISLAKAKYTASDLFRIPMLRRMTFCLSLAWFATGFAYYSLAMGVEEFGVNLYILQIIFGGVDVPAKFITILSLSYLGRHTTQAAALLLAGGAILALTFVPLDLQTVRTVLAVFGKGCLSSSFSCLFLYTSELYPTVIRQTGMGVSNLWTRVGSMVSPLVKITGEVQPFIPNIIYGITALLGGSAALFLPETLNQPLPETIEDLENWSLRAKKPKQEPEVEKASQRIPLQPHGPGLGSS

CC1(C)SC(Nc2ccccc2O)=N[C@@H]1C(=O)O [Compound 1, (R)-2-(2-hydroxyphenylamino)-5,5-dimethyl-4,5-dihydrothiazole-4-carboxylic acid mono-hydrochloride]
stability of dose formulations, time stable ([1]; room temperature): up to 13 days
stability of dose formulations, time stable ([1]; stored frozen at −20° C.): up to 85 days
reversal of allodynia (mechanical threshold relative to vehicle) ([2]; first experiment, 10, 30, 100 mg/kg PO daily, subsequent days): statistically-significant
reversal of allodynia (mechanical threshold) ([2]; first experiment, Compound 1 10, 30, 100 mg/kg PO, gabapentin 100 mg/kg PO daily, Day 0 (gabapentin: 1 h post-dose on Day 0 and all time points thereafter)): non-significant reversal of allodynia
effect on mechanical threshold compared with gabapentin ([2]; first experiment, subsequent days, gabapentin 100 mg/kg PO): comparable to gabapentin
effect on allodynia ([2]; rat model of diabetic neuropathy, streptozotocin-induced (overview)): alleviates allodynia
difference between dosing regimens ([2]; subsequent study, 100 mg/kg QD vs 50 mg/kg BID vs 33 mg/kg TID): no clear difference
reversal of allodynia (mechanical threshold) ([2]; subsequent study, 7 days, Compound 1 100 mg/kg QD, 50 mg/kg BID, 33 mg/kg TID, gabapentin 100 mg/kg PO, duloxetine 30 mg/kg PO): reversed allodynia upon continued daily dosing reaching statistical significance from Day 1 and beyond
effect on allodynia [3]: reverses allodynia
reversal of hypersensitivity [4]: complete reversal of hypersensitivity
removal of peroxynitrite [5]: catalytically remove peroxynitrite
distribution to tissues and brain ([6]; overview): distributes to tissues but not to brain to an appreciable extent
bioavailability after oral administration ([6]; rat): bioavailable
elimination from the systemic circulation ([6]; rats): moderate rate
Oral bioavailability ([6]; rats, 30 mg/kg oral dose): 111%
oral absorption ([6]; rats, 30 mg/kg oral dose): rapidly and completely absorbed
peak plasma concentration ([6]; rats, 30 mg/kg oral dose): 9 µg/mL
terminal half-life ([6]; rats, 30 mg/kg oral dose): 1.6 h
time to peak plasma concentration ([6]; rats, 30 mg/kg oral dose): ≤ 1 h
epimerization in vivo [7]: no epimerization
stability in hepatocytes [8]: stable
stability in hepatocytes [9]: stable
inhibition of OATP1B3 (in words) (OATP1B3): does not inhibit
inhibition of OAT3 (in words) (OAT3): weakly inhibits
